ChEMBL document CHEMBL1132784, “Dibasic inhibitors of human mast cell tryptase. Part 2: structure-activity relationships and requirements for potent activity” (Bioorg Med Chem Lett, 2000)

Key:
Plasminogen = Plasminogen (Homo sapiens, UniProt P00747); test: Compound was evaluated for its inhibitory potency against plasmin
Tryptase = Tryptase (Homo sapiens, UniProt Q9BZJ3+Q15661+Q9NRR2); test: Evaluated for its inhibitory potency against tryptase; format: protein assay
Serine protease 1 = Serine protease 1 (Homo sapiens, UniProt P07477); test: Compound was evaluated for its inhibitory potency against trypsin
Sequence of Serine protease 1 (P07477 whole entry): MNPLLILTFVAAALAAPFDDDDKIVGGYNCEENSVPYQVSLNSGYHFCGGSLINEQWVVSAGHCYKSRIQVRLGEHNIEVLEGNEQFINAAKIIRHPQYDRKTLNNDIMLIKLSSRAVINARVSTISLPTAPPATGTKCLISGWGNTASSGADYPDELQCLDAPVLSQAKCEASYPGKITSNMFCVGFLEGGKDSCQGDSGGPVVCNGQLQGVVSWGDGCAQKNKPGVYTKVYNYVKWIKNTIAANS

Prothrombin = Prothrombin (Homo sapiens, UniProt P00734); test: Compound was evaluated for its inhibitory potency against thrombin

Sequence of Plasminogen (P00747 97-580 limits assumed): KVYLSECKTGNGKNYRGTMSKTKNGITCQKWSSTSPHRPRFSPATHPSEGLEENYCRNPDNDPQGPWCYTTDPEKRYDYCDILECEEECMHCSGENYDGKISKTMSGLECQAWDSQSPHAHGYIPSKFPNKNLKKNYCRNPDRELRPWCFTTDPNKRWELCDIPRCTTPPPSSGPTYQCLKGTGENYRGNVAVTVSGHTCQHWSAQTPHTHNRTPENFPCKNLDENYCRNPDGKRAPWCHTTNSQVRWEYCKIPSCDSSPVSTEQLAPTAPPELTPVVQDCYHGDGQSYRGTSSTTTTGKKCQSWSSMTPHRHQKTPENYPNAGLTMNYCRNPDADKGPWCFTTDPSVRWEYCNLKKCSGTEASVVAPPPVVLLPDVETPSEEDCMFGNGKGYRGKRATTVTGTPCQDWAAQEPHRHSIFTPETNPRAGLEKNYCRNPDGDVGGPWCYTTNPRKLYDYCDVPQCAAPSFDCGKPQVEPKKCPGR
Sequence of Plasminogen (P00747 581-810 limits assumed): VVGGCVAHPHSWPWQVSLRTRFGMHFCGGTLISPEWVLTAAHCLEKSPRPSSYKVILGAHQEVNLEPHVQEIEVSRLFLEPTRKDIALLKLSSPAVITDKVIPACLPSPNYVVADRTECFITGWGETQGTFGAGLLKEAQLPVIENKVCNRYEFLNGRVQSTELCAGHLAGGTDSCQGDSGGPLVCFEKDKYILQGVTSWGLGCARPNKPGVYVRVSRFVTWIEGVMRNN

| Ki (Plasminogen) [µM] | Ki (Tryptase) [µM] | Ki (Serine protease 1) [µM] | Ki (Prothrombin) [µM] | SMILES |
| --- | --- | --- | --- | --- |
| > 1000 | 0.016 | > 1000 | > 1000 | NC[C@H]1CC[C@H](CNC(=O)N2CCN(C(=O)O[C@H]3CCC[C@@H](OC(=O)N4CCN(C(=O)NC[C@H]5CC[C@H](CN)CC5)CC4)CCC3)CC2)CC1 |
| > 1000 | 255 | > 1000 | > 1000 | CC(=N)N1CCC(CCNC(=O)N2CCN(C(=O)O[C@H]3CCC[C@@H](OC(=O)N4CCN(C(=O)NCCC5CCN(C(C)=N)CC5)CC4)CCC3)CC2)CC1 |
| 700 | – | 15 | 138 | N=C(N)Nc1ccc(CNC(=O)N2CCN(C(=O)O[C@@H]3CO[C@H]4[C@@H]3OC[C@H]4OC(=O)N3CCN(C(=O)NCc4ccc(NC(=N)N)cc4)CC3)CC2)cc1 |
| > 1000 | > 1000 | 158 | > 1000 | N=C(N)Nc1ccc(CNC(=O)N2CCN(C(=O)O[C@H]3CCC[C@@H](OC(=O)N4CCN(C(=O)CCCn5ccnc5)CC4)CCC3)CC2)cc1 |
| > 1000 | 1 | > 1000 | > 1000 | NCCCCCCNC(=O)N1CCN(C(=O)O[C@H]2CCC[C@@H](OC(=O)N3CCN(C(=O)NCCCCCCN)CC3)CCC2)CC1 |
| > 1000 | 0.011 | 754 | > 1000 | NCCCCCNC(=O)N1CCN(C(=O)O[C@H]2CCC[C@@H](OC(=O)N3CCN(C(=O)NCCCCCN)CC3)CCC2)CC1 |
| > 1000 | 0.1 | > 1000 | > 1000 | O=C(CCCC1CCNCC1)N1CCN(C(=O)O[C@H]2CCC[C@@H](OC(=O)N3CCN(C(=O)CCCC4CCNCC4)CC3)CCC2)CC1 |
| > 1000 | 0.0004 | 17 | > 1000 | N=C(N)Nc1ccc(CNC(=O)N2CCN(C(=O)OCc3ccc(COC(=O)N4CCN(C(=O)NCc5ccc(NC(=N)N)cc5)CC4)cc3)CC2)cc1 |
| > 1000 | 0.03 | 171 | > 1000 | N=C(N)Nc1ccc(CNC(=O)N2CCN(C(=O)O[C@H]3CCC[C@@H](OC(=O)N4CCN(C(=O)CCCCCn5ccnc5)CC4)CCC3)CC2)cc1 |
| 134 | 0.009 | 25 | 60 | N=C(N)c1ccc(CNC(=O)N2CCN(C(=O)O[C@H]3CCC[C@@H](OC(=O)N4CCN(C(=O)NCc5ccc(C(=N)N)cc5)CC4)CCC3)CC2)cc1 |
| > 1000 | 0.0005 | 129 | > 1000 | N=C(N)Nc1ccc(CNC(=O)N2CCN(C(=O)O[C@H]3CCC[C@@H](OC(=O)N4CCN(C(=O)NCCCCCN)CC4)CCC3)CC2)cc1 |
| > 1000 | 0.07 | 148 | > 1000 | N=C(N)Nc1ccc(CNC(=O)N2CCN(C(=O)O[C@H]3CCC[C@@H](OC(=O)N4CCN(C(=O)NCC5CCNCC5)CC4)CCC3)CC2)cc1 |
| 632 | 0.03 | 850 | 112 | N=C(N)N1CCC(CCNC(=O)N2CCN(C(=O)O[C@H]3CCC[C@@H](OC(=O)N4CCN(C(=O)NCCC5CCN(C(=N)N)CC5)CC4)CCC3)CC2)CC1 |
| 60 | 0.44 | 66 | 36 | N=C(N)c1ccc(CCNC(=O)N2CCN(C(=O)O[C@H]3CCC[C@@H](OC(=O)N4CCN(C(=O)NCCc5ccc(C(=N)N)cc5)CC4)CCC3)CC2)cc1 |
| > 1000 | 0.61 | > 1000 | 146 | N=C(N)N1CCC(CNC(=O)N2CCN(C(=O)O[C@H]3CCC[C@@H](OC(=O)N4CCN(C(=O)NCC5CCN(C(=N)N)CC5)CC4)CCC3)CC2)CC1 |
| > 1000 | 1 | 144 | > 1000 | N=C(N)Nc1ccc(CNC(=O)N2CCN(C(=O)O[C@H]3CCC[C@@H](OC(=O)N4CCN(C(=O)CCCCn5ccnc5)CC4)CCC3)CC2)cc1 |
| > 1000 | 0.0001 | 34 | > 1000 | N=C(N)Nc1ccc(CNC(=O)N2CCN(C(=O)CCCCCCC(=O)N3CCN(C(=O)NCc4ccc(NC(=N)N)cc4)CC3)CC2)cc1 |
| > 1000 | 0.0007 | 20 | > 1000 | N=C(N)Nc1ccc(CNC(=O)N2CCN(C(=O)CCCCCCCCC(=O)N3CCN(C(=O)NCc4ccc(NC(=N)N)cc4)CC3)CC2)cc1 |
| > 1000 | 0.003 | 121 | > 1000 | N=C(N)Nc1ccc(CNC(=O)N2CCN(C(=O)O[C@H]3CCC[C@@H](OC(=O)N4CCN(C(=O)NCCC5CCNCC5)CC4)CCC3)CC2)cc1 |
| – | 0.028 | 4 | > 1000 | N=C(N)Nc1ccc(CNC(=O)N2CCN(C(=O)O[C@H]3C[C@H]4C[C@@H](OC(=O)N5CCN(C(=O)NCc6ccc(NC(=N)N)cc6)CC5)C[C@H]4C3)CC2)cc1 |
| > 1000 | 0.078 | 171 | 274 | N=C(N)Nc1ccc(CNC(=O)N2CCN(C(=O)O[C@H]3CCC[C@@H](OC(=O)N4CCN(C(=O)NC[C@H]5CC[C@@H](N)CC5)CC4)CCC3)CC2)cc1 |

| Ki (Plasminogen) [µM] | Ki (Tryptase) [µM] | Ki (Serine protease 1) [µM] | Ki (Prothrombin) [µM] | SMILES |
| --- | --- | --- | --- | --- |
| > 1000 | 0.115 | > 1000 | > 1000 | O=C(NCCC1CCNCC1)N1CCN(C(=O)O[C@H]2CCC[C@@H](OC(=O)N3CCN(C(=O)NCCC4CCNCC4)CC3)CCC2)CC1 |
| 316 | 0.044 | 54 | > 1000 | N=C(N)Nc1ccc(CNC(=O)N2CCN(C(=O)CCCCC(=O)N3CCN(C(=O)NCc4ccc(NC(=N)N)cc4)CC3)CC2)cc1 |
| > 1000 | 0.0005 | 29 | > 1000 | N=C(N)Nc1ccc(CNC(=O)N2CCN(C(=O)CCCCCCCC(=O)N3CCN(C(=O)NCc4ccc(NC(=N)N)cc4)CC3)CC2)cc1 |
| > 1000 | 0.08 | 156 | 741 | N=C(N)Nc1ccc(CNC(=O)N2CCN(C(=O)O[C@H]3CCC[C@@H](OC(=O)N4CCN(C(=O)CCSc5ccncc5)CC4)CCC3)CC2)cc1 |
| > 1000 | 0.68 | 126 | > 1000 | CN(CCC1CCNCC1)C(=O)N1CCN(C(=O)O[C@H]2CCC[C@@H](OC(=O)N3CCN(C(=O)NCc4ccc(NC(=N)N)cc4)CC3)CCC2)CC1 |
| 570 | 1 | > 1000 | > 1000 | NCCc1ccc(CCNC(=O)N2CCN(C(=O)O[C@H]3CCC[C@@H](OC(=O)N4CCN(C(=O)NCCc5ccc(CCN)cc5)CC4)CCC3)CC2)cc1 |
| 66 | 0.0004 | 21 | 29 | N=C(N)c1ccc(CCC(=O)N2CCN(C(=O)O[C@H]3CCC[C@@H](OC(=O)N4CCN(C(=O)CCc5ccc(C(=N)N)cc5)CC4)CCC3)CC2)cc1 |
| > 1000 | 0.18 | 156 | > 1000 | N=C(N)Nc1ccc(CNC(=O)N2CCN(C(=O)O[C@H]3CCC[C@@H](OC(=O)N4CCN(C(=O)CCc5ccc(N)nc5)CC4)CCC3)CC2)cc1 |
| – | 15 | – | – | N=C(N)Nc1ccc(CNC(=O)N2CCN(C(=O)O[C@H]3CCC[C@@H](OC(=O)N4CCN(C(=O)NCc5ccccc5)CC4)CCC3)CC2)cc1 |
| > 1000 | 0.044 | 138 | > 1000 | N=C(N)Nc1ccc(CNC(=O)N2CCN(C(=O)O[C@H]3CCC[C@@H](OC(=O)N4CCN(C(=O)NCCCN)CC4)CCC3)CC2)cc1 |
| > 1000 | 0.002 | 171 | 213 | N=C(N)N1CCC(CCC(=O)N2CCN(C(=O)O[C@H]3CCC[C@@H](OC(=O)N4CCN(C(=O)CCC5CCN(C(=N)N)CC5)CC4)CCC3)CC2)CC1 |
| > 1000 | 0.3 | 95 | > 1000 | NCC12CCC(CNC(=O)N3CCN(C(=O)O[C@H]4CCC[C@@H](OC(=O)N5CCN(C(=O)NCC67CCC(CN)(CC6)CC7)CC5)CCC4)CC3)(CC1)CC2 |
| > 1000 | 0.005 | 445 | 130 | N=C(N)N1CCC(CC(=O)N2CCN(C(=O)O[C@H]3CCC[C@@H](OC(=O)N4CCN(C(=O)CC5CCN(C(=N)N)CC5)CC4)CCC3)CC2)CC1 |
| > 1000 | 0.24 | 80 | > 1000 | N=C(N)Nc1ccc(CNC(=O)N2CCN(C(=O)O[C@H]3CCC[C@@H](OC(=O)N4CCN(C(=O)NCCCC5CCNCC5)CC4)CCC3)CC2)cc1 |
| > 1000 | 0.001 | 141 | > 1000 | N=C(N)Nc1ccc(CNC(=O)N2CCN(C(=O)O[C@H]3CCC[C@@H](OC(=O)N4CCN(C(=O)NC[C@H]5CC[C@H](N)CC5)CC4)CCC3)CC2)cc1 |
| > 1000 | 0.9 | 131 | > 1000 | N=C(N)Nc1ccc(CNC(=O)N2CCN(C(=O)O[C@H]3CCC[C@@H](OC(=O)N4CCN(C(=O)NCCc5ccncc5)CC4)CCC3)CC2)cc1 |
| > 1000 | 6 | > 1000 | > 1000 | CNCc1ccc(CNC(=O)N2CCN(C(=O)O[C@H]3CCC[C@@H](OC(=O)N4CCN(C(=O)NCc5ccc(CNC)cc5)CC4)CCC3)CC2)cc1 |
| > 1000 | 0.82 | 126 | > 1000 | N=C(N)Nc1ccc(CNC(=O)N2CCN(C(=O)O[C@H]3CCC[C@@H](OC(=O)N4CCN(C(=O)NCc5ccc(N)cc5)CC4)CCC3)CC2)cc1 |
| > 1000 | 0.003 | 28 | – | N=C(N)Nc1ccc(CNC(=O)N2CCN(C(=O)OC[C@H]3CC[C@H](COC(=O)N4CCN(C(=O)NCc5ccc(NC(=N)N)cc5)CC4)CC3)CC2)cc1 |
| – | 101 | – | – | O=C(NCc1ccccc1)N1CCN(C(=O)O[C@H]2CCC[C@@H](OC(=O)N3CCN(C(=O)NCc4ccccc4)CC3)CCC2)CC1 |

| SMILES | Ki (Plasminogen) [µM] | Ki (Tryptase) [µM] | Ki (Serine protease 1) [µM] | Ki (Prothrombin) [µM] |
| --- | --- | --- | --- | --- |
| NCCCCNC(=O)N1CCN(C(=O)O[C@H]2CCC[C@@H](OC(=O)N3CCN(C(=O)NCCCCN)CC3)CCC2)CC1 | > 1000 | 0.51 | > 1000 | > 1000 |
